Test results as given in ChEMBL document CHEMBL4002562, “Terminal functionalized thiourea-containing dipeptides as multidrug-resistance reversers that target 20S proteasome and cell proliferation” (Eur J Med Chem, 2017).

Legend:
[1] = target: T1, Proteasome Macropain subunit MB1 (Homo sapiens, UniProt P28074); assay: Inhibition of chymotrypsin-like activity of human 20S proteasome using Suc-LLVY-AMC as substrate by fluorometric method
T1 sequence (P28074 whole entry): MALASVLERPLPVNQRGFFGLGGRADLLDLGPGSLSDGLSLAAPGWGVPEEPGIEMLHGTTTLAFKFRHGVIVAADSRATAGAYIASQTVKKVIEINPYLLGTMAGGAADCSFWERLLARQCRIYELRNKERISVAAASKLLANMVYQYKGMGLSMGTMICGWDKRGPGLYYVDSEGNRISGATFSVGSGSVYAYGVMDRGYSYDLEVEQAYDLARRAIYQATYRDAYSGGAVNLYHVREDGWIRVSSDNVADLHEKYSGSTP

HepG2 [2] = assay: Resistant factor, ratio of IC50 for human doxorubicin-resistant HepG2 cells to IC50 for human HepG2 cells; assay type: functional
HepG2 [3] = assay: cells; details: Homo sapiens, HepG2, 48 h
Description: Cytotoxicity against human HepG2 cells after 48 hrs by MTT assay

NCI-H460 [4] = assay: Resistant factor, ratio of IC50 for human doxorubicin-resistant NCI-H460 cells to IC50 for human NCI-H460 cells; assay type: functional
NCI-H460 [5] = assay: cells; details: Homo sapiens, NCI-H460, 48 h
L02 = assay: Cytotoxicity against human HL-7702 cells after 48 hrs by MTT assay; assay type: cell-based; details: L02, 48 h
HepG2 [6] = assay: Cytotoxicity against human doxorubicin-resistant HepG2 cells after 48 hrs by MTT assay; assay type: functional, cell-based; details: HepG2, 48 h
NCI-H460 [7] = assay: Cytotoxicity against human NCI-H460 cells after 48 hrs by MTT assay; details: NCI-H460, 48 h
NCI-H460 [8] = assay: Induction of apoptosis in doxorubicin-resistant human NCI-H460 cells assessed as early apoptotic cells at 4 uM after 24 hrs in presence of p-gp inhibitor LY335979 by Annexin V-PE/7-AAD staining-based flow cytometric analysis (reference value: 1.40%); assay type: functional
NCI-H460 [9] = assay: Induction of apoptosis in human NCI-H460 cells assessed as late apoptotic/necrotic cells at 4 uM after 24 hrs in presence of p-gp inhibitor LY335979 by Annexin V-PE/7-AAD staining-based flow cytometric analysis (reference value: 5.73%); assay type: functional
NCI-H460 [10] = assay: Induction of apoptosis in doxorubicin-resistant human NCI-H460 cells assessed as early apoptotic cells at 4 uM after 24 hrs by Annexin V-PE/7-AAD staining-based flow cytometric analysis (reference value: 1.40%); assay type: functional
NCI-H460 [11] = assay: Induction of apoptosis in human NCI-H460 cells assessed as late apoptotic/necrotic cells at 4 uM after 24 hrs by Annexin V-PE/7-AAD staining-based flow cytometric analysis (reference value: 5.73%); assay type: functional
NCI-H460 [12] = assay: Induction of apoptosis in human NCI-H460 cells assessed as early apoptotic cells at 4 uM after 24 hrs by Annexin V-PE/7-AAD staining-based flow cytometric analysis (reference value: 1.33%); assay type: functional
NCI-H460 [13] = assay: Induction of apoptosis in doxorubicin-resistant human NCI-H460 cells assessed as damaged cells at 4 uM after 24 hrs by Annexin V-PE/7-AAD staining-based flow cytometric analysis (reference value: 0.493%); assay type: functional
NCI-H460 [14] = assay: Induction of apoptosis in doxorubicin-resistant human NCI-H460 cells assessed as damaged cells at 4 uM after 24 hrs in presence of p-gp inhibitor LY335979 by Annexin V-PE/7-AAD staining-based flow cytometric analysis (reference value: 0.493%); assay type: functional
NCI-H460 [15] = assay: Induction of apoptosis in human NCI-H460 cells assessed as viable cells at 4 uM after 24 hrs by Annexin V-PE/7-AAD staining-based flow cytometric analysis (reference value: 83%); assay type: functional; details: NCI-H460, 24 h, read-out: Activity
NCI-H460 [16] = assay: Induction of apoptosis in human NCI-H460 cells assessed as damaged cells at 4 uM after 24 hrs in presence of p-gp inhibitor LY335979 by Annexin V-PE/7-AAD staining-based flow cytometric analysis (reference value: 9.98%); assay type: functional
[17] = target: Proteasome Macropain subunit (Homo sapiens, UniProt P49721); assay: Inhibition of trypsin-like activity of human 20S proteasome using Bz-VGR-AMC as substrate by fluorometric method
Chain of Proteasome Macropain subunit (P49721 whole entry): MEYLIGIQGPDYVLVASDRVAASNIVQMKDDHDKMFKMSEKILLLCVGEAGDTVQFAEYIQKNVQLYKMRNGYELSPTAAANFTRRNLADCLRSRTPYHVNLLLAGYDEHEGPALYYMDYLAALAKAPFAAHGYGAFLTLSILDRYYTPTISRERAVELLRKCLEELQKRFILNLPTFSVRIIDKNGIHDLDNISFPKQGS

NCI-H460 [18] = assay: Induction of apoptosis in human NCI-H460 cells assessed as damaged cells at 4 uM after 24 hrs by Annexin V-PE/7-AAD staining-based flow cytometric analysis (reference value: 9.98%); assay type: functional
NCI-H460 [19] = assay: Induction of apoptosis in doxorubicin-resistant human NCI-H460 cells assessed as late apoptotic/necrotic cells at 4 uM after 24 hrs by Annexin V-PE/7-AAD staining-based flow cytometric analysis (reference value: 2.87%); assay type: functional
NCI-H460 [20] = assay: Induction of apoptosis in doxorubicin-resistant human NCI-H460 cells assessed as viable cells at 4 uM after 24 hrs in presence of p-gp inhibitor LY335979 by Annexin V-PE/7-AAD staining-based flow cytometric analysis (reference value: 95.2%); assay type: functional; details: NCI-H460, 24 h, read-out: Activity
NCI-H460 [21] = assay: Induction of apoptosis in doxorubicin-resistant human NCI-H460 cells assessed as late apoptotic/necrotic cells at 4 uM after 24 hrs in presence of p-gp inhibitor LY335979 by Annexin V-PE/7-AAD staining-based flow cytometric analysis (reference value: 2.87%); assay type: functional
NCI-H460 [22] = assay: Induction of apoptosis in doxorubicin-resistant human NCI-H460 cells assessed as viable cells at 4 uM after 24 hrs by Annexin V-PE/7-AAD staining-based flow cytometric analysis (reference value: 95.2%); assay type: functional; details: NCI-H460, 24 h, read-out: Activity
NCI-H460 [23] = assay: Induction of apoptosis in human NCI-H460 cells assessed as viable cells at 4 uM after 24 hrs in presence of p-gp inhibitor LY335979 by Annexin V-PE/7-AAD staining-based flow cytometric analysis (reference value: 83%); assay type: functional; details: NCI-H460, 24 h, read-out: Activity
NCI-H460 [24] = assay: Induction of apoptosis in human NCI-H460 cells assessed as early apoptotic cells at 4 uM after 24 hrs in presence of p-gp inhibitor LY335979 by Annexin V-PE/7-AAD staining-based flow cytometric analysis (reference value: 1.33%); assay type: functional

Compound | IC50 [1] [µM] | Ratio IC50 (HepG2 [2]) | IC50 (HepG2 [3]) [µM] | Ratio IC50 (NCI-H460 [4]) | IC50 (NCI-H460 [5]) [µM] | IC50 (L02) [µM] | IC50 (HepG2 [6]) [µM] | IC50 (NCI-H460 [7]) [µM] | also measured
CC[C@H](C)[C@H](/N=C(/Nc1cccc(C(F)(F)F)c1)SC)C(=O)N[C@H](Cc1ccccc1)C(=O)Nc1ccc(Cl)c(Cl)c1 | 22.2 | – | – | – | – | – | – | – | –
CC[C@H](C)[C@H](NC(=S)Nc1cccc([N+](=O)[O-])c1)C(=O)N[C@H](Cc1ccccc1)C(=O)Nc1cccc(OC)c1 | 22.3 | – | – | – | – | – | – | – | –
CC[C@H](C)[C@H](NC(=S)Nc1ccc(Br)cc1)C(=O)N[C@H](Cc1ccccc1)C(=O)Nc1ccc(C)c(Cl)c1 | > 50 | – | – | – | – | – | – | – | –
CC[C@H](C)[C@H](NC(=S)Nc1cccc([N+](=O)[O-])c1)C(=O)N[C@H](Cc1ccccc1)C(=O)Nc1ccc(Br)cc1 | 2.71 | 2.76 | 17.4 | 2.18 | 35.2 | > 50 | 48.2 | 16.2 | –
CC[C@H](C)[C@H](/N=C(/Nc1cccc([N+](=O)[O-])c1)SC)C(=O)N[C@H](Cc1ccccc1)C(=O)Nc1ccc(C)c(C)c1 | > 50 | – | – | – | – | – | – | – | –
CC[C@H](C)[C@H](NC(=S)Nc1cccc([N+](=O)[O-])c1)C(=O)N[C@H](Cc1ccccc1)C(=O)Nc1cccc(Cl)c1 | 5.84 | – | 20.7 | 2.32 | 31.7 | > 50 | > 50 | 13.6 | –
CC[C@H](C)[C@H](NC(=S)Nc1cccc(C(F)(F)F)c1)C(=O)N[C@H](Cc1ccccc1)C(=O)Nc1cccc(C(F)(F)F)c1 | 19.6 | – | – | – | – | – | – | – | –
CC[C@H](C)[C@H](NC(=S)Nc1cccc([N+](=O)[O-])c1)C(=O)N[C@H](Cc1ccccc1)C(=O)Nc1ccc(Cl)c(Cl)c1 | 1.36 | 2.82 | 13.3 | 2.18 | 32.3 | > 50 | 37.4 | 14.8 | –
CC[C@H](C)[C@H](NC(=S)Nc1cccc([N+](=O)[O-])c1)C(=O)N[C@H](Cc1ccccc1)C(=O)Nc1cccc(C(F)(F)F)c1 | 0.0086 | 2.12 | 4.8 | 3.96 | 6.74 | > 50 | 10.2 | 1.7 | Activity (NCI-H460 [8]): 31.9%; Activity (NCI-H460 [9]): 24.2%; Activity (NCI-H460 [10]): 11.4%; Activity (NCI-H460 [11]): 7.76%; Activity (NCI-H460 [12]): 13.3%; Activity (NCI-H460 [13]): 1.9%; Activity (NCI-H460 [14]): 5.72%; viability at 4 µM (NCI-H460 [15]): 74.2%; Activity (NCI-H460 [16]): 13.9%; IC50 [17]: Not Active; Activity (NCI-H460 [18]): 4.72%; Activity (NCI-H460 [19]): 5.96%; viability at 4 µM (NCI-H460 [20]): 32.5%; Activity (NCI-H460 [21]): 29.9%; viability at 4 µM (NCI-H460 [22]): 80.8%; viability at 4 µM (NCI-H460 [23]): 57%; Activity (NCI-H460 [24]): 4.86%
CC[C@H](C)[C@H](/N=C(/Nc1cccc(C(F)(F)F)c1)SC)C(=O)N[C@H](Cc1ccccc1)C(=O)Nc1cccc(C(F)(F)F)c1 | 8.83 | 2.55 | 19.3 | – | > 50 | > 50 | 49.2 | 20.3 | IC50 [17]: Not Active
CC[C@H](C)[C@H](NC(=S)Nc1cccc([N+](=O)[O-])c1)C(=O)N[C@H](Cc1ccccc1)C(=O)Nc1ccc(C)c(C)c1 | > 50 | – | – | – | – | – | – | – | –
CC[C@H](C)[C@H](NC(=S)Nc1ccc(C(F)(F)F)cc1)C(=O)N[C@H](Cc1ccccc1)C(=O)Nc1cccc(Br)c1 | 0.022 | 1.47 | 18.6 | 1.58 | 11.2 | > 50 | 27.4 | 7.13 | –
CC[C@H](C)[C@H](NC(=S)Nc1cccc([N+](=O)[O-])c1)C(=O)N[C@H](Cc1ccccc1)C(=O)Nc1cccc(F)c1 | 3.57 | 2.04 | 18 | 2.33 | 28.6 | > 50 | 36.8 | 12.3 | –
CC[C@H](C)[C@H](NC(=S)Nc1cccc([N+](=O)[O-])c1)C(=O)N[C@H](Cc1ccccc1)C(=O)Nc1ccc(OC)cc1 | 29 | – | – | – | – | – | – | – | –
CC[C@H](C)[C@H](NC(=S)Nc1cccc([N+](=O)[O-])c1)C(=O)N[C@H](Cc1ccccc1)C(=O)Nc1ccc(C)c(Cl)c1 | > 50 | – | – | – | – | – | – | – | –
CC[C@H](C)[C@H](NC(=S)Nc1cccc(C(F)(F)F)c1)C(=O)N[C@H](Cc1ccccc1)C(=O)Nc1ccc(Cl)c(Cl)c1 | 0.017 | 2.44 | 12.1 | 2.52 | 15.5 | > 50 | 29.6 | 6.14 | IC50 [17]: Not Active
CC[C@H](C)[C@H](NC(=S)Nc1cccc([N+](=O)[O-])c1)C(=O)N[C@H](Cc1ccccc1)C(=O)Nc1ccc(F)cc1 | 1.97 | 2.78 | 17.5 | 2.09 | 42.4 | > 50 | 48.5 | 20.2 | –
COc1cccc2c1C(=O)c1c(O)c3c(c(O)c1C2=O)C[C@@](O)(C(=O)CO)C[C@@H]3O[C@H]1C[C@H](N)[C@H](O)[C@H](C)O1 [DOXORUBICIN] | – | – | 6.91 | – | – | 12.2 | > 50 | – | –
